The source of these data is ChEMBL document CHEMBL4602670, “Palhinosides A-H: Flavone Glucosidic Truxinate Esters with Neuroprotective Activities from Palhinhaea cernua” (J Nat Prod, 2020).

Activity calls are given as the source filed them. No cut-off for these calls is given here.

The first test deals with HT-22. In words: Neuroprotective activity against glutamate-induced cell damage in mouse HT22 assessed as increase cell viability at 0.6 to 15 uM after 24 hrs by luminescent cell viability assay. The class given is functional, cell-based.
Take `O=C(OC[C@H]1O[C@@H](Oc2cc(O)c3c(=O)cc(-c4ccc(O[C@H]5O[C@@H](CO)[C@H](O)[C@@H](O)[C@@H]5O)cc4)oc3c2)[C@H](O)[C@@H](O)[C@@H]1O)[C@H]1[C@H](C(=O)OC[C@H]2O[C@@H](Oc3cc(O)c4c(=O)cc(-c5ccc(O[C@H]6O[C@@H](CO)[C@H](O)[C@@H](O)[C@@H]6O)cc5)oc4c3)[C@H](O)[C@@H](O)[C@@H]2O)[C@H](c2ccc(O)cc2)[C@H]1c1ccc(O)cc1`: the outcome was inactive.
Turning to `O=C(OC[C@H]1O[C@@H](Oc2cc(O)c3c(=O)cc(-c4ccc(O)cc4)oc3c2)[C@H](O)[C@@H](O)[C@@H]1O)[C@H]1[C@H](C(=O)OC[C@H]2O[C@@H](Oc3cc(O)c4c(=O)cc(-c5ccc(O[C@H]6O[C@@H](CO)[C@H](O)[C@@H](O)[C@@H]6O)cc5)oc4c3)[C@H](O)[C@@H](O)[C@@H]2O)[C@H](c2ccc(O)cc2)[C@H]1c1ccc(O)cc1`, the outcome was inactive.
Consider `O=C(OC[C@H]1O[C@@H](Oc2cc(O)c3c(=O)cc(-c4ccc(O)cc4)oc3c2)[C@H](O)[C@@H](O)[C@@H]1O)[C@@H]1[C@H](C(=O)OC[C@H]2O[C@@H](Oc3cc(O)c4c(=O)cc(-c5ccc(O)cc5)oc4c3)[C@H](O)[C@@H](O)[C@@H]2O)[C@@H](c2ccc(O)cc2)[C@H]1c1ccc(O)cc1`, for which the result was inactive.
With `O=C(OC[C@H]1O[C@@H](Oc2cc(O)c3c(=O)cc(-c4ccc(O[C@H]5O[C@@H](CO)[C@H](O)[C@@H](O)[C@@H]5O)cc4)oc3c2)[C@H](O)[C@@H](O)[C@@H]1O)[C@@H]1[C@H](C(=O)OC[C@H]2O[C@@H](Oc3cc(O)c4c(=O)cc(-c5ccc(O)cc5)oc4c3)[C@H](O)[C@@H](O)[C@@H]2O)[C@@H](c2ccc(O)cc2)[C@H]1c1ccc(O)cc1`, the outcome was inactive.

The next test concerns HT-22. The experiment in a line: Neuroprotective activity against glutamate-induced cell damage in mouse HT22 assessed as increase cell viability at 1.3 to 15 uM after 24 hrs by luminescent cell viability assay. The test is classed as functional, cell-based.
With `COC(=O)[C@H]1[C@H](C(=O)OC[C@H]2O[C@@H](Oc3cc(O)c4c(=O)cc(-c5ccc(O[C@@H]6O[C@H](CO)[C@@H](O)[C@H](O)[C@H]6O)cc5)oc4c3)[C@H](O)[C@@H](O)[C@@H]2O)[C@H](c2ccc(O)cc2)[C@H]1c1ccc(O)cc1`, the result was Active.
With `COC(=O)[C@H]1[C@@H](C(=O)OC[C@H]2O[C@@H](Oc3cc(O)c4c(=O)cc(-c5ccc(O[C@@H]6O[C@H](CO)[C@@H](O)[C@H](O)[C@H]6O)cc5)oc4c3)[C@H](O)[C@@H](O)[C@@H]2O)[C@H](c2ccc(O)cc2)[C@@H]1c1ccc(O)cc1`, the result was Active.
In the case of `COC(=O)[C@H]1[C@H](C(=O)OC[C@H]2O[C@@H](Oc3cc(O)c4c(=O)cc(-c5ccc(O)cc5)oc4c3)[C@H](O)[C@@H](O)[C@@H]2O)[C@H](c2ccc(O)cc2)[C@H]1c1ccc(O)cc1`, the result was Active.
In the case of `Cc1c(C)c2c(c(C)c1O)CCC(C)(C(=O)O)O2` (stereo not given), the result was Active.
In the case of `COC(=O)[C@H]1[C@@H](C(=O)OC[C@H]2O[C@@H](Oc3cc(O)c4c(=O)cc(-c5ccc(O)cc5)oc4c3)[C@H](O)[C@@H](O)[C@@H]2O)[C@H](c2ccc(O)cc2)[C@@H]1c1ccc(O)cc1`, the outcome was Active.

Another test deals with HT-22. In words: Neuroprotective activity in mouse HT22 assessed as decrease in glutamate-induced ROS generation preincubated for 8 hrs followed by addition of 2,7-dichlorofluorescein diacetate and measured after 30 mins by fluorescence based assay. The test is classed as functional, cell-based.
For the compound `COC(=O)[C@H]1[C@@H](C(=O)OC[C@H]2O[C@@H](Oc3cc(O)c4c(=O)cc(-c5ccc(O)cc5)oc4c3)[C@H](O)[C@@H](O)[C@@H]2O)[C@H](c2ccc(O)cc2)[C@@H]1c1ccc(O)cc1`, the Activity entry was “Dose-dependent effect”.
